Measurements reported in PMC7939570, “Discovery of potent histone deacetylase inhibitors with modified phenanthridine caps” (Journal of Enzyme Inhibition and Medicinal Chemistry, 2021).

Columns and labels:
[1] = tested on: Hela nucleus extract containing a mixture of HDAC isoforms; assay: HDAC enzyme inhibitory assay with Hela nucleus extract; assay type: biochemical; settings: 1 µM, mean of three experiments
Description: The HDAC enzyme inhibitory activities of synthesised compounds were investigated by utilising Hela nucleus extract containing a mixture of HDAC isoforms. Percentage inhibitory rate was used to determine the activity of tested compounds (Tables 1 and 2). The Fa series compounds were firstly synthesised for the activity screening. […] To investigate whether aromatic linker could improve the inhibitory activities, structural modifications were performed on current molecules.

U937 cells = assay: MTT antiproliferative assay, U937 cells; settings: U937 cells, MTT, mean of three experiments; for U937 percentage inhibitory rate: 1 µM; for inhibition at 1 µM: Homo sapiens, U-937, read-out: U937 percentage inhibitory rate, 1 µM

| Molecule | HDACs percentage inhibitory rate [1] | U937 percentage inhibitory rate (U937 cells) | inhibition at 1 µM (U937 cells) |
| --- | --- | --- | --- |
| 4-{4-[6–(3-Nitro-benzoylamino)-benzo[1,3]dioxol-5-yl]-benzoylamino}-N-Hydroxy-butyramide [Fa-17] | 52.44 ± 6.17% | 13.42 ± 0.81% | – |
| O=C(CCCNC(=O)c1ccc(-c2cc3c(cc2NC(=O)c2cccc(Br)c2)OCO3)cc1)NO [Fa-1, 4-{4-[6–(3-Bromo-benzoylamino)-benzo[1,3]dioxol-5-yl]-benzoylamino}-N-Hydroxy-butyramide] | 6.63 ± 1.28% | – | 21 ± 0.55% |
| COc1ccccc1C(=O)Nc1cc2c(cc1-c1ccc(C(=O)NCCCC(=O)NO)cc1)OCO2 [Fa-2, 4-{4-[6–(2-Methoxy-benzoylamino)-benzo[1,3]dioxol-5-yl]-benzoylamino}-N-Hydroxy-butyramide] | 15.23 ± 3.23% | – | 19.2 ± 1.09% |
| O=C(CCCNC(=O)c1ccc(-c2cc3c(cc2NC(=O)c2ccc(F)cc2)OCO3)cc1)NO [Fa-3, 4-{4-[6-(4-Fluoro-benzoylamino)-benzo[1,3]dioxol-5-yl]-benzoylamino}-N-Hydroxy-butyramide] | 9.22 ± 2.28% | – | 19.4 ± 1.44% |
| Cc1ccccc1C(=O)Nc1cc2c(cc1-c1ccc(C(=O)NCCCC(=O)NO)cc1)OCO2 [Fa-4, 4-{4-[6-(2-Methyl-benzoylamino)-benzo[1,3]dioxol-5-yl]-benzoylamino}-N-Hydroxy-butyramide] | 13.65 ± 4.04% | – | 18.2 ± 2.91% |
| O=C(CCCNC(=O)c1ccc(-c2cc3c(cc2NC(=O)c2cccc(F)c2)OCO3)cc1)NO [Fa-5, 4-{4-[6-(3-Fluoro-benzoylamino)-benzo[1,3]dioxol-5-yl]-benzoylamino}-N-Hydroxy-butyramide] | – | 33.95 ± 1.70% | 19.9 ± 1.33% |
| O=C(CCCNC(=O)c1ccc(-c2cc3c(cc2NC(=O)c2ccccc2C(F)(F)F)OCO3)cc1)NO [Fa-6, 4-{4-[6-(2-Trifluoromethyl-benzoylamino)-benzo[1,3]dioxol-5-yl]-benzoylamino}-N-Hydroxy-butyramide] | 24.88 ± 4.88% | – | 15 ± 2.47% |
| CCc1ccc(C(=O)Nc2cc3c(cc2-c2ccc(C(=O)NCCCC(=O)NO)cc2)OCO3)cc1 [Fa-7, 4-{4-[6-(4-Ethyl-benzoylamino)-benzo[1,3]dioxol-5-yl]-benzoylamino}-N-Hydroxy-butyramide] | 25.79 ± 5.79% | – | 22.2 ± 2.28% |
| O=C(CCCNC(=O)c1ccc(-c2cc3c(cc2NC(=O)c2ccccc2F)OCO3)cc1)NO [Fa-8, 4-{4-[6-(2-Fluoro-benzoylamino)-benzo[1,3]dioxol-5-yl]-benzoylamino}-N-Hydroxy-butyramide] | 5.32 ± 1.72% | – | 19.9 ± 1.96% |
| O=C(CCCNC(=O)c1ccc(-c2cc3c(cc2NC(=O)c2cccc(C(F)(F)F)c2)OCO3)cc1)NO [Fa-9, 4-{4-[6-(3-Trifluoromethyl-benzoylamino)-benzo[1,3]dioxol-5-yl]-benzoylamino}-N-Hydroxy-butyramide] | 18.92 ± 1.30% | – | 20.45 ± 0.05% |
| O=C(CCCNC(=O)c1ccc(-c2cc3c(cc2NC(=O)c2ccccc2Cl)OCO3)cc1)NO [Fa-10, 4-{4-[6-(2-Chloro-benzoylamino)-benzo[1,3]dioxol-5-yl]-benzoylamino}-N-Hydroxy-butyramide] | 23.41 ± 1.95% | – | 23 ± 1.23% |
| O=C(CCCNC(=O)c1ccc(-c2cc3c(cc2NC(=O)c2ccccc2)OCO3)cc1)NO [Fa-11, 4-[4–(6-Benzoylamino-benzo[1,3]dioxol-5-yl)-benzoylamino]-N-Hydroxy-butyramide] | 14.32 ± 2.19% | – | 25.6 ± 1.76% |
| O=C(CCCNC(=O)c1ccc(-c2cc3c(cc2NC(=O)c2ccc(C(F)(F)F)cc2)OCO3)cc1)NO [Fa-12, 4-{4-[6–(4-Trifluoromethyl-benzoylamino)-benzo[1,3]dioxol-5-yl]-benzoylamino}-N-Hydroxy-butyramide] | 17.69 ± 3.52% | – | 48.5 ± 3.98% |
| COc1ccc(C(=O)Nc2cc3c(cc2-c2ccc(C(=O)NCCCC(=O)NO)cc2)OCO3)cc1 [Fa-13, 4-{4-[6–(4-Methoxy-benzoylamino)-benzo[1,3]dioxol-5-yl]-benzoylamino}-N-Hydroxy-butyramide] | 44.51 ± 0.22% | – | 88.9 ± 5% |
| O=C(CCCNC(=O)c1ccc(-c2cc3c(cc2NC(=O)c2cc(F)cc(F)c2)OCO3)cc1)NO [Fa-14, 4-{4-[6–(3,5-Difluoro-benzoylamino)-benzo[1,3]dioxol-5-yl]-benzoylamino}-N-Hydroxy-butyramide] | 28.72 ± 4.74% | – | 9.84 ± 0.71% |
| O=C(CCCNC(=O)c1ccc(-c2cc3c(cc2NC(=O)c2ccc(F)cc2F)OCO3)cc1)NO [Fa-15, 4-{4-[6–(2,4-Difluoro-benzoylamino)-benzo[1,3]dioxol-5-yl]-benzoylamino}-N-Hydroxy-butyramide] | 19.51 ± 4.10% | – | 6.76 ± 0.26% |
| O=C(CCCNC(=O)c1ccc(-c2cc3c(cc2NC(=O)c2ccc(OC(F)(F)F)cc2)OCO3)cc1)NO [Fa-16, 4-{4-[6–(4-Trifluoromethoxy-benzoylamino)-benzo[1,3]dioxol-5-yl]-benzoylamino}-N-Hydroxy-butyramide] | 34.10 ± 1.02% | – | 16.1 ± 2.82% |
| O=C(CCCNC(=O)c1ccc(-c2cc3c(cc2NC(=O)c2ccc(F)cc2C(F)(F)F)OCO3)cc1)NO [Fa-18, 4-{4-[6–(4-Fluoro-2-trifluoromethyl-benzoylamino)-benzo[1,3]dioxol-5-yl]-benzoylamino}-N-Hydroxy-butyramide] | 31.47 ± 3.47% | – | 10.3 ± 1.31% |
| O=C(CCCNC(=O)c1ccc(-c2cc3c(cc2NC(=O)c2ccc(F)c(Cl)c2)OCO3)cc1)NO [Fa-19, 4-{4-[6–(3-Chloro-4-fluoro-benzoylamino)-benzo[1,3]dioxol-5-yl]-benzoylamino}-N-Hydroxy-butyramide] | 24.43 ± 2.90% | – | 15.8 ± 2.29% |
| CCCc1ccc(C(=O)Nc2cc3c(cc2-c2ccc(C(=O)NCCCC(=O)NO)cc2)OCO3)cc1 [Fa-20, 4-{4-[6–(4-Propyl-benzoylamino)-benzo[1,3]dioxol-5-yl]-benzoylamino}-N-Hydroxy-butyramide] | 21.14 ± 2.55% | – | 12.2 ± 0.24% |
| O=C(CCCNC(=O)c1ccc(-c2cc3c(cc2NC(=O)c2c(F)cccc2Cl)OCO3)cc1)NO [Fa-21, 4-{4-[6–(2-Chloro-6-fluoro-benzoylamino)-benzo[1,3]dioxol-5-yl]-benzoylamino}-N-Hydroxy-butyramide] | 15.58 ± 3.25% | – | 11.2 ± 1.01% |
| O=C(CCCNC(=O)c1ccc(-c2cc3c(cc2NC(=O)c2cc(F)ccc2F)OCO3)cc1)NO [Fa-22, 4-{4-[6–(2,5-Difluoro-benzoylamino)-benzo[1,3]dioxol-5-yl]-benzoylamino}-N-Hydroxy-butyramide] | 24.89 ± 4.89% | – | 4.73 ± 0.64% |
| O=C(CCCNC(=O)c1ccc(-c2cc3c(cc2NC(=O)c2ccc(F)c(C(F)(F)F)c2)OCO3)cc1)NO [Fa-23, 4-{4-[6–(4-Fluoro-3-trifluoromethyl-benzoylamino)-benzo[1,3]dioxol-5-yl]-benzoylamino}-N-Hydroxy-butyramide] | 20.29 ± 0.29% | – | 17.4 ± 3.35% |
| O=C(NO)c1ccc(CNC(=O)c2ccc(-c3cc4c(cc3NC(=O)c3ccccc3)OCO4)cc2)cc1 [Fb-1, 4-{[4–(6-Benzoylamino-benzo[1,3]dioxol-5-yl)-benzoylamino]-methyl}-N-Hydroxy-benzamide] | 57.50 ± 2.92% | – | 65.2 ± 0.29% |
| O=C(NO)c1ccc(CNC(=O)c2ccc(-c3cc4c(cc3NC(=O)c3cccc(F)c3)OCO4)cc2)cc1 [Fb-6, 4-({4-[6–(3-Fluoro-benzoylamino)-benzo[1,3]dioxol-5-yl]-benzoylamino}-methyl)-N-Hydroxy-benzamide] | 58.36 ± 5.06% | – | 92.2 ± 2.72% |
| O=C(NO)c1ccc(CNC(=O)c2ccc(-c3cc4c(cc3NC(=O)c3ccc(C(F)(F)F)cc3)OCO4)cc2)cc1 [Fb-7, 4-({4-[6–(4-Trifluoromethyl-benzoylamino)-benzo[1,3]dioxol-5-yl]-benzoylamino}-methyl)-N-Hydroxy-benzamide] | 47.03 ± 15.05% | – | 84.9 ± 1.68% |
| O=C(NO)c1ccc(CNC(=O)c2ccc(-c3cc4c(cc3NC(=O)c3cccc(C(F)(F)F)c3)OCO4)cc2)cc1 [Fb-8, 4-({4-[6–(3-Trifluoromethyl-benzoylamino)-benzo[1,3]dioxol-5-yl]-benzoylamino}-methyl)-N-Hydroxy-benzamide] | 47.09 ± 0.62% | – | 78.2 ± 3.05% |
| Cc1ccccc1C(=O)Nc1cc2c(cc1-c1ccc(C(=O)NCc3ccc(C(=O)NO)cc3)cc1)OCO2 [Fb-9, 4-({4-[6–(2-Methyl-benzoylamino)-benzo[1,3]dioxol-5-yl]-benzoylamino}-methyl)-N-Hydroxy-benzamide] | 35.97 ± 3.07% | – | 69.2 ± 3.08% |
